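Cultured in 96-well plates, cells were exposed to test compound for 48 hours across five concentrations. GI50 is the concentration that inhibits growth by half.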 Activity calls are given as the source filed them. Rule as the data show it: active = GI50 up to about 1.1 µM and inactive = higher.
Legend:
Test in all cases: NCI-60 cell line screen, 48 h
ACHN = test system: ACHN
HT-29 = test system: HT-29
HOP-62 = test system: HOP-62
CCRF-CEM = test system: CCRF-CEM
A549 = test system: A549
LOX IMVI = test system: LOX IMVI
BT-549 = test system: BT-549
NCI-H23 = test system: NCI-H23
SR = test system: SR
OVCAR-3 = test system: OVCAR-3
SK-OV-3 = test system: SK-OV-3
HL-60 = test system: HL-60
HCT-116 = test system: HCT-116
RXF 393 = test system: RXF 393
SK-MEL-2 = test system: SK-MEL-2
Malme-3M = test system: Malme-3M
M14 = test system: M14
MDA-N = test system: MDA-N

Measured: GI50

COC(=O)C1=C(OC(=O)c2ccccc2)C(C(=O)OC)[C@@]2(O)[C@@H](C(=O)OC)[C@H](C)C[C@@H]1[C@@H]2C(=O)OC (stereo partly drawn)
inactive: ACHN 31.6 µM | HT-29 34.6 µM | HOP-62 33.1 µM | CCRF-CEM 8.89 µM | A549 19.5 µM | LOX IMVI 32.1 µM | BT-549 23.7 µM | NCI-H23 30.8 µM | SR 21.5 µM | OVCAR-3 46.2 µM | SK-OV-3 29.5 µM | HL-60 20.1 µM | HCT-116 36 µM | RXF 393 14.4 µM | SK-MEL-2 58.2 µM | Malme-3M 26.9 µM | M14 28.3 µM | MDA-N 21.4 µM

CCn1c(-c2ccc(/N=N/Nc3ccc(-c4n[nH]c(=S)n4CC)cc3)cc2)n[nH]c1=S
inactive: ACHN 2.36 µM | HT-29 3.55 µM | HOP-62 2.74 µM | CCRF-CEM 3.91 µM | A549 3.56 µM | LOX IMVI 3.46 µM | BT-549 1.66 µM | NCI-H23 2.53 µM | SR 3.47 µM | OVCAR-3 2.26 µM | SK-OV-3 3.33 µM | HL-60 2.93 µM | HCT-116 3.55 µM | RXF 393 3.43 µM | SK-MEL-2 1.68 µM | Malme-3M 2.57 µM | M14 2.65 µM | MDA-N 3.19 µM

O=C1NC(N2CCCC(CO)C2)=N/C1=C\c1ccccc1 (stereo not drawn)
inactive: ACHN > 100 µM | HT-29 > 100 µM | HOP-62 > 100 µM | CCRF-CEM > 100 µM | A549 > 100 µM | LOX IMVI > 100 µM | BT-549 > 100 µM | NCI-H23 > 100 µM | SR > 100 µM | OVCAR-3 > 100 µM | SK-OV-3 > 100 µM | HL-60 > 100 µM | HCT-116 > 100 µM | RXF 393 > 100 µM | SK-MEL-2 > 100 µM | Malme-3M > 100 µM | M14 > 100 µM | MDA-N > 100 µM

Oc1ccc2ccccc2c1-c1c(Nc2ccccc2)ccc2ccccc12
inactive: ACHN 19.9 µM | HT-29 33.7 µM | HOP-62 16.1 µM | CCRF-CEM 16.2 µM | A549 18.5 µM | LOX IMVI 19.4 µM | BT-549 16.3 µM | NCI-H23 15.6 µM | SR 16 µM | OVCAR-3 9.4 µM | SK-OV-3 6.08 µM | HL-60 19.5 µM | HCT-116 11.6 µM | RXF 393 17.2 µM | SK-MEL-2 17.2 µM | Malme-3M 8.53 µM | M14 11.7 µM | MDA-N 6.22 µM

COc1cc(/C=C2/SC(c3ccccc3)N(c3cc(Cl)ccc3Cl)C2=O)cc(OC)c1OC (stereo not drawn)
inactive: ACHN > 100 µM | HT-29 > 100 µM | HOP-62 > 100 µM | CCRF-CEM 38.5 µM | A549 > 100 µM | LOX IMVI 67.6 µM | BT-549 > 100 µM | NCI-H23 > 100 µM | SR 45.5 µM | OVCAR-3 52.2 µM | SK-OV-3 > 100 µM | HL-60 51.9 µM | HCT-116 46.3 µM | RXF 393 45.8 µM | SK-MEL-2 > 100 µM | Malme-3M 62.8 µM | M14 50.9 µM | MDA-N 19.1 µM

O=c1oc2ncccc2n1Cc1ccc([N+](=O)[O-])cc1
inactive: ACHN > 100 µM | HT-29 > 100 µM | HOP-62 > 100 µM | CCRF-CEM > 100 µM | A549 > 100 µM | LOX IMVI > 100 µM | BT-549 38.1 µM | NCI-H23 > 100 µM | SR > 100 µM | OVCAR-3 > 100 µM | SK-OV-3 > 100 µM | HL-60 > 100 µM | HCT-116 68.2 µM | RXF 393 > 100 µM | SK-MEL-2 > 100 µM | Malme-3M > 100 µM | M14 > 100 µM | MDA-N > 100 µM

C=CCCCC1(C)CCCCNC1=O (stereo not drawn)
inactive: ACHN > 10 µM | HT-29 > 10 µM | HOP-62 > 10 µM | CCRF-CEM > 10 µM | A549 > 10 µM | LOX IMVI > 10 µM | BT-549 > 10 µM | NCI-H23 > 10 µM | SR > 10 µM | OVCAR-3 > 10 µM | SK-OV-3 > 10 µM | HL-60 > 10 µM | HCT-116 > 10 µM | RXF 393 > 10 µM | SK-MEL-2 > 10 µM | Malme-3M > 10 µM | M14 > 10 µM | MDA-N > 10 µM

NC(=S)NN=C1Cc2ccccc2C1
inactive: ACHN > 100 µM | HT-29 > 100 µM | HOP-62 > 100 µM | CCRF-CEM > 100 µM | A549 > 100 µM | LOX IMVI > 100 µM | BT-549 > 100 µM | NCI-H23 > 100 µM | SR > 100 µM | OVCAR-3 > 100 µM | SK-OV-3 > 100 µM | HL-60 > 100 µM | HCT-116 > 100 µM | RXF 393 > 100 µM | SK-MEL-2 > 100 µM | Malme-3M > 100 µM | M14 > 100 µM | MDA-N > 100 µM

CC1(C)C2CCC(=O)C1C(OCc1ccccc1)C2 (stereo not drawn)
inactive: ACHN > 100 µM | HT-29 > 100 µM | HOP-62 > 100 µM | CCRF-CEM > 100 µM | A549 21.9 µM | LOX IMVI > 100 µM | BT-549 94 µM | NCI-H23 > 100 µM | SR 29.8 µM | OVCAR-3 > 100 µM | SK-OV-3 > 100 µM | HL-60 67.3 µM | HCT-116 > 100 µM | RXF 393 > 100 µM | SK-MEL-2 > 100 µM | Malme-3M > 100 µM | M14 > 100 µM | MDA-N > 100 µM

CC(C)(C)OC(=O)NCCCCC1NC(=O)[C@@H]2Cc3c([nH]c4ccccc34)C(c3ccccc3)N2C1=O (stereo partly drawn)
inactive: ACHN 43.8 µM | HT-29 25.6 µM | HOP-62 30.3 µM | CCRF-CEM 26.7 µM | A549 38.4 µM | LOX IMVI 19.9 µM | BT-549 21.9 µM | NCI-H23 25.9 µM | SR 13.6 µM | OVCAR-3 19 µM | SK-OV-3 50.4 µM | HL-60 21.5 µM | HCT-116 29.7 µM | RXF 393 14.7 µM | SK-MEL-2 24.7 µM | Malme-3M 31.1 µM | M14 28.6 µM | MDA-N 29.4 µM

CCOC(=O)/C(=C\NCc1ccc2c(c1)OCO2)c1nc2ccccc2[nH]1
inactive: ACHN 38.4 µM | HT-29 24.6 µM | HOP-62 71.3 µM | CCRF-CEM 42 µM | A549 35.4 µM | LOX IMVI 42.2 µM | BT-549 83.4 µM | NCI-H23 25.6 µM | SR 48.1 µM | OVCAR-3 43 µM | SK-OV-3 > 100 µM | HL-60 48.8 µM | HCT-116 39.8 µM | RXF 393 > 100 µM | SK-MEL-2 48.4 µM | Malme-3M 41.7 µM | M14 47.2 µM | MDA-N 75 µM
